Columns and labels:
Aβ1-40 peptide secretion = test: Quantification of secreted Aβ1-40 by ELISA in SY5Y-APP695WT cells; format: cell-based; conditions: Homo sapiens; concentration inhibiting 50% of Aβ1-40 peptide secretion in SY5Y cells; 24 h treatment; mean ± SD of at least two experiments in triplicate
Method: Cell culture and treatment. The human neuroblastoma cell line […] was maintained in Dulbecco's modified Eagle medium (DMEM, high glucose, pyruvate-GIBCO by Life Technologies) supplemented with 10% foetal bovine serum, 2 mM L-glutamine, 1 mM non-essential amino acids and penicillin/streptomycin (GIBCO by Life Technologies) at 37° C. in a 5% CO2 humidified incubator. […] cells were maintained in 75 cm^2 culture flasks (Falcon) with supplemented DMEM medium until they reached 80% of confluence 24 h before treatment. For compounds treatment, a 10 mM stock solution was diluted in freshly supplemented DMEM medium to obtain the precise final concentration of drug. Bafilomycin A1 (BafA1), the vacuolar […] type H+ ATPase inhibitor, was purchased from Merck Millipore and was used at a final dilution of 100 nM. For drug treatment, cells were plated at a rate of 5·10^5 cells per well into 12-well plates (Falcon) and cultured with 1 mL supplemented DMEM cell medium for 24 h before drug exposure. The following day, cell medium was replaced with fresh medium containing drugs diluted at the indicated concentrations. Cells were treated for 24 h. At the end of treatments, the cell medium was collected and kept at -80° C. until use for dosage. Then, cells were rinsed once with PBS and extracted in 100 μL of Laemmli buffer (10 mM Tris, 20% glycerol and 2% Sodium dodecyl sulfate) using a cell-scraper. The cell lysate was further sonicated (30 pulses of 0.5 s, 60 Hz) for 5 min. Total protein concentration was determined using the Pierce BCA Protein Assay Kit (Thermo scientific) according to the manufacturer's instructions. Samples were stored at -80° C. until analysis. Quantification of secreted Aβ1-40/1-42 and sAPPα/sAPPβ. Conditioned media of […] collected at the end of treatments were centrifuged at 1000 g for 5 min to eliminate cells debris. Aβ1-40 and Aβ1-42 peptide concentrations in […] were determined using amyloid-beta 40 and 42 Human ELISA kits (Invitrogen) according to the manufacturer's instructions after 1:10 and 1:2 dilutions of supernatants in ELISA buffer, respectively. sAPPα and sAPPβ concentrations in ng/mL were determined using the sAPPα/sAPPβ kit (Meso Scale Diagnostics, MSD®) according to the manufacturer's instructions. Compounds of the invention (compounds 24-37, 41, 44 and 51-58) were evaluated for their ability to modulate APP processing on SY5Y human neuroblastoma cell line stably expressing the neuronal isoform of human wild-type APP695 (SYSY-APPwt). Aβ levels (Aβ1-40 and Aβ1-42) after treatment with reference and tested compounds were measured by ELISA (Table 2). […] APP carboxy-terminal fragments (αCTFs and AICD) were measured by Western blot and quantified. The effect of reference and tested compounds on αCTFs and AICD are expressed as the intensity of corresponding western-blot bands resulting from the secretase cleavages.

CTFα = test: APP carboxy-terminal fragment αCTF by Western blot in SY5Y-APP695WT cells; format: cell-based, human; conditions: CTFα increase compared to chloroquine ([CTF]compound/[CTF]CQ) at 3 μM; mean of at least three experiments
Description: Antibodies. Primary antibodies used in this study for western-blot analysis included a homemade rabbit antiserum against the last 17 amino acids of human APP protein sequence, named APP-Cter-C17 (1/5000 in TBS-M). Anti-β-actin (1/10 000 in TBS-M) was obtained from Sigma. Anti-LC3B (1/2000 in TBS-BSA) and anti-p62/SQSTM1 (1/2000 in TBS-M) antibodies were purchased from Cell Signaling Technology. Secondary antibodies (peroxidase-labeled goat anti-rabbit IgG, 1/5000 or peroxidase-labeled horse anti-mouse IgG, 1/50000 in TBS-T) were obtained from Vector Laboratories.
Cell culture and treatment. The human neuroblastoma cell line SY5Y-APP^695WT was maintained in Dulbecco's modified Eagle medium (DMEM, high glucose, pyruvate—GIBCO by Life Technologies) supplemented with 10% foetal bovine serum, 2 mM L-glutamine, 1 mM non-essential amino acids and penicillin/streptomycin (GIBCO by Life Technologies) at 37° C. in a 5% CO2 humidified incubator. SY5Y-APP^695WT cells were maintained in 75 cm^2 culture flasks (Falcon) with supplemented DMEM medium until they reached 80% of confluence 24 h before treatment.
For drug treatment, cells were plated at a rate of 5·10^5 cells per well into 12-well plates (Falcon) and cultured with 1 mL supplemented DMEM cell medium for 24 h before drug exposure. The following day, cell medium was replaced with fresh medium containing drugs diluted at the indicated concentrations. Cells were treated for 24 h. At the end of treatments, the cell medium was collected and kept at −80° C. until use for dosage. Then, cells were rinsed once with PBS and extracted in 100 μL of Laemmli buffer (10 mM Tris, 20% glycerol and 2% Sodium dodecyl sulfate) using a cell-scraper. The cell lysate was further sonicated (30 pulses of 0.5 s, 60 Hz) for 5 min. Total protein concentration was determined using the Pierce BCA Protein Assay Kit (Thermo scientific) according to the manufacturer's instructions. Samples were stored at −80° C. until analysis.
Western Blot Analysis. Cell protein lysates were prepared for western-blot analysis by diluting the sample with 1 volume of NuPAGE® lithium dodecyl sulfate (LDS) 2× sample buffer supplemented with 20% NuPAGE® sample reducing agents (Invitrogen). Samples were heat 10 min at 100° C. 10 μg of total proteins per well were loaded onto a precast 4-12% Criterion XT Bis-Tris polyacrylamide gel (Bio-Rad) and electrophoresis was achieved after applying a tension of 150 V during 90 min using a Criterion electrophoresis Cell with the NuPAGE® MOPS SDS running buffer (1×). Proteins were transferred to a nitrocellulose membrane of […] pore size (G&E Healthcare) using the Criterion blotting system and applying a tension of 100 V for 45 min. To resolve proteins of low molecular weights such as carboxy-terminal fragments of APP, 12% Criterion XT Bis-Tris polyacrylamide gels (Bio-Rad) were used and electrophoresis was performed during 70 min at 150 V in a NuPAGE® MES SDS running buffer (1×). Proteins were transferred to a nitrocellulose membrane of 0.2 μm pore size (G&E Healthcare) at 100 V for 40 min. Molecular weights calibration was achieved using molecular weight markers (Novex and Magic Marks, Life Technologies). Protein transfer and quality were determined by a reversible Ponceau Red coloration (0.2% Xylidine Ponceau Red and 3% Trichloroacetic acid). Membranes were then blocked in 25 mM Tris-HCl pH 8.0, 150 mM NaCl, 0.1% Tween-20 (v/v) (TBS-T) and 5% (w/v) of skimmed milk (TBS-M) or 5% (w/v) of bovine serum albumin (TBS-BSA) depending on the antibody during 1 h. Membrane was rinsed three-times 10 min in TBS-T before incubation with the primary antibody overnight at 4° C. Membrane was rinsed 3 times 10 min with TBS-T and then incubated with the secondary antibody for 45 min at room temperature (RT). […] Quantifications of protein expression levels were performed with ImageJ Software (NIH). […]

Row | IC50 (Aβ1-40 peptide secretion) | SMILES | CTFα vs CQ (3 μM) (CTFα)
1 | 2800 ± 1200 nM | CN(C)Cc1ccccc1-c1ccc(NCCCN2CCCCC2)c(OCCN2CCCCC2)c1 [Compound 30, 4-(2-[(Dimethylamino)methyl]phenyl)-2-[2-(piperidin-1-yl)ethoxy]-N-[3-(piperidin-1-yl)propyl]aniline] | 6.4
2 | 2100 ± 300 nM | CN(C)Cc1ccccc1-c1ccc(NCCCN2CCCCC2)c(OCCC2CCCCC2)c1 [Compound 31, 3-(2-cyclohexylethoxy)-2′-((dimethylamino)methyl)-N-(3-(piperidin-1-yl)propyl)-[1,1′-biphenyl]-4-amine] | 0.1

— patent US20210230131A1, “POLYAMINO BIARYL COMPOUNDS AND THEIR USE” (INSERM (INSTITUT NATIONAL DE LA SANTÉ ET DE LA RECHERCHE …, priority 2018, published 2021)
